SMILES strings stand for the structures. Structures can show the parent of a compound that is named as a salt. Where two headings read alike, the source gives them in different places.

One data set deals with THP-1-HMGB1-Lucia cells. The data set can be described thus: TBZ-induced necroptosis screening by HMGB1-luciferase release. The following applies: 8 h, read-out: % Inhibition (luciferase activity relative to TBZ-treated supernatant); for activity at 20 µM: Homo sapiens. Format: cell-based, human. Here is the method: (§1) To identify potential inhibitors of the necroptosis pathway targeting MLKL or the process of p-MLKL pore formation on the membrane, we screened a library of 2150 compounds, including FDA-approved drugs and those in phase 1–3 clinical trials, using THP-1-HMGB1-Lucia™ cells expressing the HMGB1-luciferase fusion protein. The cells were treated with a necroptosis-inducing mixture containing TNF-α, BV6, and Z-VAD-FMK (TBZ) in addition to the compound library (Fig. 1A). The supernatants were harvested to measure luciferase activities for necroptosis. The luciferase activities of cell supernatants treated with TBZ alone were considered as the maximum release (100%) of HMGB1-luciferase. NEC-1, a known RIP1 inhibitor used in both humans and mice, was used as a positive control. […] Next, we performed a propidium iodide (PI) uptake assay to exclude cytotoxic compounds using THP-1 cells. Then, we selected candidate molecules that were arbitrarily less than 30% of those treated with TBZ. […] Next, the inhibition levels of p-MLKL were tested to select MLKL-targeting molecules (Figs. 1C and S1A). Compounds that reduced p-MLKL levels to less than 30% of TBZ-treated controls were considered as potential inhibitors of MLKL phosphorylation. Conversely, compounds that maintained p-MLKL levels above 70% were selected because they are presumed to prevent the formation of pores in the plasma membrane by interfering with oligomerization.
A clinical chemical library containing 2150 items (Korea Chemical Bank, South Korea), under phase 1–3 clinical trials, including FDA-approved drugs, was used to screen for necroptosis inhibitors. Each chemical was dissolved in DMSO and diluted to 20 μM in DPBS for treatment.
THP-1-HMGB1-Lucia^TM cells were pretreated with the pan-caspase inhibitor Z-VAD-FMK (50 μM, tlrl-vad, InvivoGen) and each chemical for 1 h, and followed by TNF-α (100 ng/mL, TNF0501, NKMAXBio, Seongnam, S. Korea) and Smac mimetic BV6 (10 μM, B1332-5, Biovision, Santa Clara, CA, USA), termed TBZ mixture, were added for necroptosis screening. The RIP1 inhibitor, NEC-1 (1846, Biovision), and MLKL inhibitor, NSA (432531-71-0, Sigma-Aldrich, St. Louis, MO, USA), were used as controls. The cell supernatant was harvested to measure HMGB1 levels using a luciferase assay kit (E1500, Promega, Madison, WI, USA) by a luminometer (Centro XS3 LB 960, Berthold Technologies, Bad Wildbad, Germany). The inhibition of necroptosis (%) was calculated as: (sample-treated data – medium-only data) × 100/(TBZ-treated data – medium-only data). APO [STK088477, (6aS)-6-methyl-5,6,6a,7-tetrahydro-4H-dibenzo[de,g]quinoline-10,11-diol, Vitas-M Laboratory, Hong Kong] was stored at −70 °C after aliquoting with DMSO. APO was used after dilution in DPBS. APO is susceptible to auto-oxidation in solution in the presence of light and air. DPBS containing 5 mM DTT was used for Re-APO. Ox-APO was prepared by incubating APO in DPBS at 25 °C for 24 h in the presence of light and air, followed by removal of any precipitate by filtration through 0.2 μm.

Another data set has as its system p-MLKL. The data set can be described thus: Western blot of phosphorylated MLKL in whole cell lysates. Format: cell-based, human. The following applies: Homo sapiens, read-out: p-MLKL/MLKL ratio relative to TBZ-treated cells (% Value). Here is the method: as §1
(§2) The cells were harvested and lysed in 1× RIPA buffer (R4100-010, GenDEPOT, Katy, TX, USA) containing protease (P3100-001, GenDEPOT) and phosphatase (1862495, Thermo Fisher Scientific) inhibitors. WCLs were then centrifuged at 20,000×g for 30 min at 4 °C and subjected to non-reducing or reducing 8–12% SDS-PAGE gel electrophoresis. The membrane was blocked with 5% non-fat milk in TBS and probed with antibodies. Antibodies to hMLKL (14993S), mMLKL (97705S), phospho-hMLKL (Ser358) (91689S), phospho-mMLKL (Ser345) (37333S), phospho-hRIP1 (Ser166) (65746S), mRIP1 (3493S), phospho-mRIP1 (Ser321) (38662S), phospho-hRIP3 (Ser227) (93654), mRIP3 (95702S), p-mRIP3 (Thr231/Ser232) (91702S), and LDH (2012S) (Cell Signaling Technology, Danvers, MA, USA), and GAPDH (LF-PA0018, Abfrontier, S. Korea), hRIP1 (ab72139, Abcam, Cambridge, UK), hRIP3 (sc-135170, Santa Cruz Biotechnology, Dallas, TX, USA), HMGB1 (ab78923, Abcam), and LAMP1 (ab24170, Abcam) antibodies were used.
Fig. S1 Assessment of p-MLKL inhibition to identify MLKL-targeting molecules. (A) Quantification graph corresponding to Fig. 1C. […] Whole-cell lysates (WCLs) were collected and subjected to Western blot analysis under reducing conditions using antibodies against p-MLKL, MLKL, and GAPDH. The p-MLKL/MLKL ratio was quantified and compared to that of TBZ-treated cells. Data represent the mean of three independent experiments. (B) Quantification graph corresponding to Fig. 1D. […] Cytosolic and membrane fractions were collected and analyzed by Western blot under reducing conditions. The levels of p-MLKL and p-RIP1 were normalized to LDH (cytosolic marker) and LAMP1 (membrane marker), respectively. Quantified ratios were compared to those of TBZ-treated cells (n = 3 independent experiments).

In the next data set the test system is p-MLKL and p-RIP1. The data set can be described thus: Western blot of cytosol and membrane fractions. Format: cell-based, human. As to conditions: THP-1, TBZ, 20 μM. Here is the method:
as §2
Cell membrane fractionation was performed to determine whether MLKL oligomers were retained in the cell membrane fraction. Briefly, THP-1 cells were harvested and resuspended in 20 mM TBS (pH 7.4) containing 10 mM KCl, 1 mM MgCl2, protease inhibitor (P3100-001, GenDEPOT), and phosphatase inhibitor (1862495, Thermo Fisher Scientific). The cell suspension was passed through a 22-gauge needle and centrifuged at 20,000×g for 15 min and stored as the cytoplasmic fraction. The pellet was resuspended in lysis buffer and stored as the crude membrane fraction.
Fig. S1 Assessment of p-MLKL inhibition to identify MLKL-targeting molecules. (A) Quantification graph corresponding to Fig. 1C. THP-1 cells were treated with TBZ in the presence of secondarily selected compounds (S1–S72, 20 μM). Whole-cell lysates (WCLs) were collected and subjected to Western blot analysis under reducing conditions using antibodies against p-MLKL, MLKL, and GAPDH. The p-MLKL/MLKL ratio was quantified and compared to that of TBZ-treated cells. Data represent the mean of three independent experiments. (B) Quantification graph corresponding to Fig. 1D. THP-1 cells were treated with TBZ in the presence of third-round selected compounds (S1–S62, 20 μM). Cytosolic and membrane fractions were collected and analyzed by Western blot under reducing conditions. The levels of p-MLKL and p-RIP1 were normalized to LDH (cytosolic marker) and LAMP1 (membrane marker), respectively. Quantified ratios were compared to those of TBZ-treated cells (n = 3 independent experiments).
On the technique in general: Immunoblotting shows a protein as a band on a membrane.

The test system of the next data set is ulcerative colitis. Further details: method as in PMID 34389633. As to conditions: phase II trial; cited from earlier work.
Setting [1] is: 20 μM compound with TBZ, TBZ alone = 100, DPBS = 0.
The mark [2] stands for this setting: THP-1, TBZ and 20 μM compound, 8 h, whole cell lysates.

In the case of `O=C(Nc1ccc(Br)cc1)c1cccc(S(=O)(=O)Nc2ccc(Br)cc2)c1` [S19, N-(4-Bromophenyl)-3-[[(4-bromophenyl)amino]sulfonyl]benzamide], the results for the activity at 20 µM in the data set on THP-1-HMGB1-Lucia cells (setting [1]) and with p-MLKL (setting [2]) were 5.3% and 55%, respectively.

Consider `COc1cc2nccc(Oc3ccc(NC(=O)Nc4cc(C)on4)c(Cl)c3)c2cc1OC` [S46, Tivozanib], for which the activity at 20 µM with THP-1-HMGB1-Lucia cells (setting [1]) is 9%; with p-MLKL (setting [2]), 18%.

Take `C=C1C(=O)O[C@H]2[C@H]1CC/C(C)=C/CC[C@@]1(C)O[C@@H]21` [S38, Parthenolide]: the values for the activity at 20 µM in the data set with THP-1-HMGB1-Lucia cells (setting [1]) and with p-MLKL (setting [2]) were 0% and 40%, respectively.

`CCCCC1C(=O)N(c2ccccc2)N(c2ccc(O)cc2)C1=O` (stereo not drawn) [S4, Oxyphenbutazone]: the results for the activity at 20 µM in the data set on THP-1-HMGB1-Lucia cells (setting [1]) and in the data set on p-MLKL (setting [2]) were 0% and 38%, respectively.

For the molecule `Cc1ncc(-c2ccnc(Nc3ccc(S(C)(=O)=O)cc3)n2)n1C(C)C` [S28, AZD 5438], the figures for the activity at 20 µM in the data set on THP-1-HMGB1-Lucia cells (setting [1]) and in the data set on p-MLKL (setting [2]) were 0% and 55%, respectively.

Regarding `CC(=O)Oc1ccccc1C(=O)Nc1ncc([N+](=O)[O-])s1` [S15, Nitazoxanide], the activity at 20 µM in the data set with THP-1-HMGB1-Lucia cells (setting [1]) was found to be 1.2%; with p-MLKL (setting [2]), 100%. Further, in the data set with p-MLKL and p-RIP1, the “effect on p-MLKL levels in both cytosolic and membrane fractions” value is on record as “almost no effect”.

In the case of `CC(C)(C)c1nc(-c2cccc(NS(=O)(=O)c3c(F)cccc3F)c2F)c(-c2ccnc(N)n2)s1` [S31, Dabrafenib], the activity at 20 µM in the data set with THP-1-HMGB1-Lucia cells (setting [1]) amounted to 4.5%; with p-MLKL (setting [2]) it was 0%.

Regarding `C=C1C(=O)O[C@@H]2/C=C(\C)CC/C=C(\C)CC[C@@H]12` [S35, Costunolide], the activity at 20 µM in the data set with THP-1-HMGB1-Lucia cells (setting [1]) was 9%; in the data set on p-MLKL (setting [2]), 30%.

On to `CN1C(=O)[C@@H](NC(=O)c2nnc(Cc3ccccc3)[nH]2)COc2ccccc21` [GSK2982772], for which, in the data set with ulcerative colitis, the therapeutic benefit entry is reported as “failed to show significant therapeutic benefit” and the tolerability in humans entry was “well tolerated”.

Consider `CN1CCN(c2ccc(Nc3c4ccccc4nc4ccccc34)cc2)CC1` [S1, JP-1302], for which the activity in the data set on THP-1-HMGB1-Lucia cells (setting [1]) was 0.4%. In the data set on p-MLKL and p-RIP1, the RIP1 phosphorylation result is “seemed to inhibit”.

Consider `CC1(C)CC[C@]2(C(=O)O)CC[C@]3(C)[C@H](C(=O)C=C4[C@@]5(C)C=C(C#N)C(=O)C(C)(C)[C@@H]5CC[C@]43C)[C@@H]2C1` [S16, Bardoxolone], for which the activity at 20 µM with THP-1-HMGB1-Lucia cells (setting [1]) and in the data set with p-MLKL (setting [2]) was 0% in each case.

As to `O=C(Nc1ccc([N+](=O)[O-])cc1Cl)c1cc(Cl)ccc1O` [S72, Niclosamide], the activity at 20 µM in the data set with THP-1-HMGB1-Lucia cells (setting [1]) is 0.9%; in the data set on p-MLKL (setting [2]) it was 35%.

In the case of `COc1cc2ncnc(Nc3cccc(Cl)c3)c2cc1OC` [S3, Tyrphostin], the activity at 20 µM is 7.5% in the data set on THP-1-HMGB1-Lucia cells (setting [1]) and 70% in the data set with p-MLKL (setting [2]). Further, the “effect on p-MLKL levels in both cytosolic and membrane fractions” value with p-MLKL and p-RIP1 is “almost no effect”.

With `O=C1c2c(O)ccc(O)c2C(=O)c2c(NCCNCCO)ccc(NCCNCCO)c21` [S58, Mitoxantrone hydrochloride], the activity at 20 µM came to 7.6% in the data set on THP-1-HMGB1-Lucia cells (setting [1]) and 39% with p-MLKL (setting [2]).

As for `Cc1ccc(C(=O)Nc2ccc(CN3CCN(C)CC3)c(C(F)(F)F)c2)cc1C#Cc1cnc2cccnn12` [S17, Ponatinib], the activity at 20 µM came to 4.5% in the data set with THP-1-HMGB1-Lucia cells and 2% with p-MLKL (THP-1, 8 h).

Take `CO[C@H]1C[C@@H]2CC[C@@H](C)[C@@](O)(O2)C(=O)C(=O)N2CCCC[C@H]2C(=O)O[C@H]([C@H](C)C[C@@H]2CC[C@@H](O)[C@H](OC)C2)CC(=O)[C@H](C)/C=C(\C)[C@@H](O)[C@@H](OC)C(=O)[C@H](C)C[C@H](C)/C=C/C=C/C=C/1C` [S56, Sirolimus]: the activity at 20 µM in the data set with THP-1-HMGB1-Lucia cells (setting [1]) is 0.3%.

As to `Cc1ccc(Nc2nccc(N(C)c3ccc4c(C)n(C)nc4c3)n2)cc1S(N)(=O)=O` [S10, Pazopanib], the activity at 20 µM stood at 9.4% in the data set with THP-1-HMGB1-Lucia cells (setting [1]) and 86% with p-MLKL (setting [2]).

On to `CNCc1ccc(-c2[nH]c3cc(F)cc4c3c2CCNC4=O)cc1` [S42, Rucaparib], for which the activity at 20 µM in the data set with THP-1-HMGB1-Lucia cells (setting [1]) came out at 9.1%.

Take `Nc1ncnc2c1c(I)cn2[C@@H]1O[C@H](CO)[C@@H](O)[C@H]1O` [S47, 5-Iodotubercidin]: in the data set on THP-1-HMGB1-Lucia cells (setting [1]), the activity turned out to be 4.9%.

`CO[C@H]1C[C@@H]2CC[C@@H](C)[C@@](O)(O2)C(=O)C(=O)N2CCCC[C@H]2C(=O)O[C@H]([C@H](C)C[C@@H]2CC[C@@H](OC(=O)C(C)(CO)CO)[C@H](OC)C2)CC(=O)[C@H](C)/C=C(\C)[C@@H](O)[C@@H](OC)C(=O)[C@H](C)C[C@H](C)/C=C/C=C/C=C/1C` [S9, Temsirolimus]: the activity at 20 µM in the data set on THP-1-HMGB1-Lucia cells (setting [1]) worked out at 19%.

Consider `COc1ccc(CNc2nc(N(CCO)CCO)nc3c2ncn3C(C)C)cc1` [S12, CVT-313], for which the activity in the data set with THP-1-HMGB1-Lucia cells (setting [1]) worked out at 4.7%.
